Measurements: patent US20050191348A1 (priority 2004, published 2005)

Tests used:
[1] = tested on: Bcl-2 family and PKC isoform mRNA; assay: Gene expression by quantitative real-time RT-PCR in serum-free PC12 cells; assay type: cell-based, rat; settings: 1 μM, 24 h, serum-free PC12
Description: (vi) Total RNA extraction. PC12 cells were cultured in DMEM containing 5% FCS and 10% horse serum until confluence. At the day of the experiment, the medium was replaced with fresh medium without serum and rasagiline or propargylamine at various concentrations were administered for 24 h. At the end of incubation, the medium was removed and isolation of total RNA was performed, using Tri Reagent™ Isolation reagent. Total RNA was treated with DNase-RNase free (Roche Diagnostics, Mannheim, Germany) for 30 min at 37° C. and subsequently extracted by a round of phenol:chlorophorm:isoamylalcohol (25:24:1), followed by one of chloroform. After precipitation with NaOAc (0.3 M) and ethyl alcohol, the RNA pellet was washed with 80% ethyl alcohol (12,000×g) for 10 min and resuspended in 50-100 μl of diethylpyrocarbonate (DEPC)-treated water and incubated for 5-10 min at 56° C. to facilitate resuspension.
(vi) Reverse transcription (RT) and quantitative real-time RT-PCR. In order to confirm the results obtained with the customized cDNA expression micro-array, 2 μg of total RNA were denatured and reverse transcribed using random hexanucleotides (0.5 μg/μl). Secondary structures of the template and primer (total volume of 16 μl) were opened by incubation for 5 min at 70° C. and immediately cooled on ice. Reaction mix (9 μl) containing reaction buffer, dNTP (0.5 mm each), RNAasin™ RNAase inhibitor (Promega) (25U) and M-MLV reverse transcriptase (200U) was added and samples were incubated at 39° C. for 1 h. For every RNA preparation a negative control was run in parallel consisting of a direct amplification of the RNA sample, omitting the RT step. The samples were transferred to 92° C. for 10 min, in order to deactivate the enzyme, and then cooled to 4° C.
Quantitative real-time PCR, using LightCycler and FastStart DNA Master SYBR Green I ready-to use PCR mix, was performed according to the manufacture's protocol (Roche Diagnostics, Mannheim, Germany). cDNA (40 ng) was amplified in 20 μl total volume. The sequences of the primers and the size of the products are described in Table 1. The results are analyzed on the provided program of the LightCycler. The relative expression level of a given mRNA was assessed by normalizing to the housekeeping gene 18S-rRNA and compared with control values.
In this experiment, we examined whether Bcl-2 family proteins mediate the pro-survival effect of rasagiline, using serum-starved rat pheochromocytoma PC12 cell line as a model of neuronal apoptosis. PC12 cells were maintained in full-serum (control), or in serum-free (SF) media in the absence or presence of various concentrations of rasagiline (0.001, 0.1, 1 and 10 μM) for 3 h or 24 h, and gene expression was measured by quantitative real-time RT-PC. The real-time RT-PCR consists of RNA samples isolated from said PC-12 cells. Each gene expression was normalized to the housekeeping gene, 18S-rRNA, since this transcript was reported to be less susceptible to the influence by external factors.
The effect of propargylamine on Bad and Bax mRNA levels was examined as described in Example 5 above.

PKC = PKC phosphorylation in PC12 cell lysates, Western blot with p-PKC (pan) antibody; assay type: cell-based, rat; settings: PC12, 0.1, 1 and 10 μM, 1 h
Description: (iv) Immunoblot Analyses. For Western blot analyses, attached cells were washed once in cold PBS and then lysed in 1× nonreducing Laemmli buffer followed by boiling for 3-5 min. Protein content was determined using the Bradford method. Equal amounts of protein were separated by SDS-polyacrylamide gel electrophoresis and blotted onto polyvinylidene difluoride (PVDF) membranes (Millipore). Membranes were treated with blocking buffer (5% dry milk in PBS or 5% dry milk, 0.05% Tween 20 (Sigma) in TBS). Primary antibodies were diluted in PBS or in TBS containing 5% BSA, 0.05% Tween 20 and incubated with membranes for 20 h at 4° C., followed by incubation (1 h at room temperature) in dilutions of horseradish peroxidase (HRP)-conjugated secondary antibodies in the same buffers. Following antibody incubations, membranes were washed in 0.5% Tween 20 in PBS or TBS. Detection was achieved using ECL™ Western Blotting Detection Reagent (Amersham, Pharmacia, Little Chalfort Buckinghamshire, UK). Quantification of results was accomplished by measuring the optical density of the labeled bands from the autoradiograms by scanning laser densitometry using the computerized imaging program Bio-ID (Imager, Bio1D software; Vilber Lourmat, Marne La Vallee, France). The values were normalized to β-actin intensity levels.
Since activation of PKC has been shown previously to modulate cell viability, resulting in protection of neuronal cells, it was of interest to investigate the effects of rasagiline on PKC activation. In one experiment, PC12 cells were untreated or treated with various concentrations of rasagiline (0.1, 1 and 10 μM) for 1 hour. […] Phosphorylation of PKC was analyzed in cell lysates by Western blotting and detected with p-PKC (pan) antibody.
The effect of propargylamine on PKC phosphorylation/activation was investigated as described in Example 2 above.

caspase-3 = assay: Caspase-3 cleavage in SH-SY5Y cells in serum free medium; assay type: cell-based, human; settings: 3 days serum free, then 48 h with 1, 10 μM
Description: FIGS. 3A-3D show the neuroprotective effects of propargylamine against serum deprivation. PC12 cells (3A) and SH-SY5Y neuroblastoma cells (3B) were incubated under serum deprivation and were untreated or treated with propargylamine (0.1, 1, 10 μM) for 24 hours. Cell death was detected by ELISA and the values are expressed as a percentage of the control. The results are the mean±SEM (n=3). *p<0.05 vs. control, untreated cells. (3C) Morphological characteristics visualized by phase-contrast microscope of PC12 cells maintained with full serum medium (a), or serum-free medium in the absence (b) or presence of propargylamine (1 μM) (c) or (10 μM) (d). The morphology was visualized by phase-contrast microscope. The results are representative photographic. Similar results were repeated 3 times. (3D) Effect of propargylamine on caspase-3 cleavage in SH-SY5Y neuroblastoma cells incubated 3 days in serum free medium, followed by 48 h incubation with or without propargylamine (1,10 μM).
(iv) Immunoblot Analyses. […] Protein content was determined using the Bradford method. […] Quantification of results was accomplished by measuring the optical density of the labeled bands from the autoradiograms by scanning laser densitometry using the computerized imaging program Bio-ID (Imager, Bio1D software; Vilber Lourmat, Marne La Vallee, France). […]

PC12 cells = assay: Cell death under serum deprivation (apoptotic cell death detection ELISA), PC12; assay type: cell-based, rat; settings: PC12, 24 h serum deprivation, significant at 1 and 10 μM
Description: Two different neuronal cell lines were used: the rat PC12 and the human neuroblastoma SH-SY5Y cells.
PC12 cells, originated from rat pheochromocytoma, were grown to confluence in T75 flasks containing DMEM (1000 mg/l glucose) and supplemented with 5% FCS, 10% horse serum, and a mixture of 1% of penicillin/streptomycin/nystatin.
Cell cultures were incubated at 37° C. in a humid 5% CO2-95% air environment. For cell viability assays, cells were treated with various drugs in serum free media containing 0.1% BSA.
In order to test cell viability, PC12 cells and SH-SY5Y neuroblastoma cels were incubated under serum deprivation and were untreated or treated with rasagiline (0.1. 1 or 10 μM) for 24 hours.

`C#CCN` [propargylamine] was tested, and the Bad gene expression [1] was “restored both Bax and Bad gene expressions to that of full serum level”, the Bax gene expression [1] was “restored both Bax and Bad gene expressions to that of full serum level” and the PKC phosphorylation (PKC) was “significant, dose-dependent increase in PKC phosphorylation”. The “activated caspase-3” value (caspase-3) was “decreased activated caspase-3” and the “cell death induced by serum deprivation” value (PC12 cells) was “significantly reduced cell death”.
